In paper PMC9783868, “Indoline-5-Sulfonamides: A Role of the Core in Inhibition of Cancer-Related Carbonic Anhydrases, Antiproliferative Activity and Circumventing of Multidrug Resistance” (Pharmaceuticals, 2022):
Read-outs that look alike come from different tables or passages of the source.

Key:
hCA XII = molecular target: T1, hCA XII (Homo sapiens, UniProt O43570); assay: CA inhibition, stopped-flow CO2 hydration assay; assay type: biochemical; details: stopped-flow technique; mean from three assays
T1 construct: made in house
Procedure: (§1) The CO2 hydration activity of the four hCA isoforms was monitored using an Applied Photophysics stopped-flow instrument. Phenol red (at a concentration of 0.2 mM) was used as an indicator, working at the absorbance maximum of 557 nm, with 10 mM HEPES (pH 7.4) as a buffer, and 20 mM NaClO4 (for maintaining constant the ionic strength), following the initial rates of the CA-catalyzed CO2 hydration reaction for a period of 10–100 s. To determine the kinetic parameters by Lineweaver-Burk plots and the inhibition constants, a concentration of CO2 between 1.7 to 17 mM was used. At least six measurements of the original 5–10% reaction were used to assess the initial velocity for each inhibitor. The uncatalyzed rates were determined and detracted from the total observed rates. Stock inhibitor solutions (10–100 mM) were prepared in distilled-deionized water, and dilutions up to 0.1 nM were done with the buffer test. […] The inhibition constants were obtained by non-linear least-squares methods using PRISM 6 and the Cheng-Prusoff equation, as reported earlier, and represent the mean from at least three different determinations.

hCA I = molecular target: T2, hCA I (Homo sapiens, UniProt P00915); assay: CA inhibition, stopped-flow CO2 hydration assay; assay type: biochemical; details: stopped-flow technique; mean from three assays
T2 construct: made in house
Procedure: as §1

hCA IX = molecular target: T3, hCA IX (Homo sapiens, UniProt Q16790); assay: CA inhibition, stopped-flow CO2 hydration assay; assay type: biochemical; details: stopped-flow technique; mean from three assays
T3 construct: made in house
Procedure: as §1

hCA II = molecular target: T4, hCA II (Homo sapiens, UniProt P00918); assay: CA inhibition, stopped-flow CO2 hydration assay; assay type: biochemical; details: stopped-flow technique; mean from three assays
T4 construct: made in house
Procedure: as §1

A431 skin cancer cells = assay: Antiproliferative activity, MTT test; assay type: cell-based, human; details: 72 h, normoxia
Source text: To evaluate the influence of CA inhibition on the antiproliferative activity, we selected five compounds 4b, f, m, n and 10 with different inhibition profiles against CA IX for in-depth testing on cancer cells with increased CA IX expression. The database www.proteinatlas.org (accessed on 13 October 2022) contains data on gene expression in various cell lines. According to the data obtained from this database, A431 cells express CA IX at a very high level, which distinguishes them from human cell lines belonging to other tissues [https://www.proteinatlas.org/ENSG00000107159-CA9/cell+line (accessed on 13 October 2022)]. A431 cells are skin cancer cells, and their growth has already been intensely analyzed in hypoxia. […] Moreover, Ren and colleagues described that hypoxia modulates cellular pathways in A431 cells, which are associated with radioresistance and enhanced migration. Given the observations described above, we were expecting to reveal the high antiproliferative activity of the selected compounds against skin cancer cells. […] In hypoxia, the activity of tested compounds was increased, but the 50% inhibition of growth was never achieved.
(§2) The MCF7 human breast, A431 human skin cancer cells and K562 (ATCC CCL-243) chronic myelogenous leukemia cells were obtained from the ATCC collection. The MDR subline K562/4 [77] […] The growth inhibitory activity of compounds was assessed by the MTT test based on the metabolism of the MTT reagent (3-[4,5-dimethylthiazol-2-yl]-2,5-diphenyltetrazolium bromide) (Applichem) in living cells, with modifications as described previously in [49]. […] Culture plates were gently shaken, and the absorbance was measured at 571 nm with a reference wavelength of 630 nm on a MultiScan reader (ThermoFisher, Waltham, MA, USA). The viability of the cells was expressed as a percentage of the control. Dose-response curves were analyzed by regression analysis using sigmoid curves (Log(concentration) vs. normalized absorbance).

MCF7 cells = assay: Antiproliferative activity, MTT test; assay type: cell-based; details: Homo sapiens, MTT assay after 72 h exposure
Procedure: A series of synthesized indoline-5-sulfonamides was tested on the MCF7 cancer cell line under normoxia and hypoxia using the MTT test.
The MDR subline K562/4 [77] (kind gift of Dr. Alexander Shtil, Blokhin N.N. National Medical Research Center of Oncology) was obtained by stepwise selection of K562 cells for survival under continuous exposure to Dox. This subline expresses the MDR1 gene and functional P-gp and is characterized by a high resistance index for Dox. […] Cells in the logarithmic phase of growth were used in the experiments. The growth inhibitory activity of compounds was assessed by the MTT test based on the metabolism of the MTT reagent (3-[4,5-dimethylthiazol-2-yl]-2,5-diphenyltetrazolium bromide) (Applichem) in living cells, with modifications as described previously in [49]. Compounds at different concentrations in 100 μL of the appropriate medium were added, and the cells were grown for 72 h. The hypoxia (1% O2) conditions were simulated in Binder multigas incubator, as described in [49]. After incubation with compounds, the medium was removed, the MTT reagent that was dissolved in the medium was added to the final concentration of 0.2 mg/mL to each well, and the incubation was performed for 2 h. Then the cell supernatants were removed, and purple formazan crystals were dissolved in 100% DMSO (350 μL per well). Culture plates were gently shaken, and the absorbance was measured at 571 nm with a reference wavelength of 630 nm on a MultiScan reader (ThermoFisher, Waltham, MA, USA). The viability of the cells was expressed as a percentage of the control. Dose-response curves were analyzed by regression analysis using sigmoid curves (Log(concentration) vs. normalized absorbance).
All results were reported as means ± SD. One-way analysis of variance was used for the analysis of data. Differences were defined as significant at p < 0.05. GraphPad Prism7 (GraphPad Software, San Diego, CA, USA) was used for the determination of the half-maximal inhibitory concentration (IC50) values.

K562 cells = assay: Antiproliferative activity, MTT test; assay type: cell-based, human
Source text: Next, we examined the activity of the whole series of indoline-5-sulfonamides against leukemia cell line K562.
as §2, with “[77] (kind gift of Dr. Alexander Shtil, Blokhin N.N. National Medical Research Center of Oncology) was obtained by stepwise selection of K562 cells for survival under continuous exposure to Dox. This subline expresses the MDR1 gene and functional P-gp and is characterized by a high resistance index for Dox.” for “[77]”

K562/4 cells = assay: Reversal of chemoresistance to Dox, MTT test; assay type: cell-based, human
Source text: Earlier, Kopecka and colleagues have shown that CA XII can interact with P-gp and influence its activity. Subsequently, silencing or inhibition of CA XII by chemical agents may restore the sensitivity to Dox of resistant K562 and other tumor cells. Given the potent inhibition of 4f against CA XII and the activity of 4e against K562, we examined their ability to reverse the chemoresistance of K562/4 with P-gp to Dox.
The MCF7 human breast, A431 human skin cancer cells and K562 (ATCC CCL-243) chronic myelogenous leukemia cells were obtained from the ATCC collection. The MDR subline K562/4 [77] (kind gift of Dr. Alexander Shtil, Blokhin N.N. National Medical Research Center of Oncology) was obtained by stepwise selection of K562 cells for survival under continuous exposure to Dox. This subline expresses the MDR1 gene and functional P-gp and is characterized by a high resistance index for Dox. The MCF7 and A431 cells were cultured in standard 4.5 g/L glucose DMEM medium (Gibco) supplemented with 10% FCS (HyClone), 2 mM L-glutamine, 50 U/mL penicillin, 50 µg/mL streptomycin (PanEco), 100 µg/mL sodium pyruvate (Santa Cruz) at 37 °C, 5% CO2 and 80–85% humidity in NuAire incubator. Suspension myelogenous leukemia cells (K562, K562/4) were propagated in RPMI-1640 (PanEco) with 5% FCS (HyClone), 2 mM L-glutamine, 100 U/mL penicillin, and 100 µg/mL streptomycin at 37 °C, 5% CO2, and 80–85% humidity in Binder incubator. Cells in the logarithmic phase of growth were used in the experiments. The growth inhibitory activity of compounds was assessed by the MTT test based on the metabolism of the MTT reagent (3-[4,5-dimethylthiazol-2-yl]-2,5-diphenyltetrazolium bromide) (Applichem) in living cells, with modifications as described previously in [49]. Compounds at different concentrations in 100 μL of the appropriate medium were added, and the cells were grown for 72 h. The hypoxia (1% O2) conditions were simulated in Binder multigas incubator, as described in [49]. After incubation with compounds, the medium was removed, the MTT reagent that was dissolved in the medium was added to the final concentration of 0.2 mg/mL to each well, and the incubation was performed for 2 h. Then the cell supernatants were removed, and purple formazan crystals were dissolved in 100% DMSO (350 μL per well). Culture plates were gently shaken, and the absorbance was measured at 571 nm with a reference wavelength of 630 nm on a MultiScan reader (ThermoFisher, Waltham, MA, USA). The viability of the cells was expressed as a percentage of the control. Dose-response curves were analyzed by regression analysis using sigmoid curves (Log(concentration) vs. normalized absorbance).
Figure 6 Susceptibility of resistant K562/4 line to combinations of Dox (25 µM) with indoline-5-sulfonamides 4e and 4f. […]

[1] = hypoxia (1% O2), read-out: IC50 against MCF7 Cells, Hypoxia
[2] = normoxia, read-out: IC50 against MCF7 Cells, Normoxia

T2 sequence (P00915 whole entry): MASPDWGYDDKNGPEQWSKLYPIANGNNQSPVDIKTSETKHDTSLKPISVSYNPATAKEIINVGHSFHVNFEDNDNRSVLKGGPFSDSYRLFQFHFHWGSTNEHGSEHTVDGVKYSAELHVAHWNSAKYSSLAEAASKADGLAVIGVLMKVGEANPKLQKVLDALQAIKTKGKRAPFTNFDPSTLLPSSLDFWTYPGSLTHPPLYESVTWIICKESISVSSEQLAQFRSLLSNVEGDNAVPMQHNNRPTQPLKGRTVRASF
T1 sequence (O43570 25-354): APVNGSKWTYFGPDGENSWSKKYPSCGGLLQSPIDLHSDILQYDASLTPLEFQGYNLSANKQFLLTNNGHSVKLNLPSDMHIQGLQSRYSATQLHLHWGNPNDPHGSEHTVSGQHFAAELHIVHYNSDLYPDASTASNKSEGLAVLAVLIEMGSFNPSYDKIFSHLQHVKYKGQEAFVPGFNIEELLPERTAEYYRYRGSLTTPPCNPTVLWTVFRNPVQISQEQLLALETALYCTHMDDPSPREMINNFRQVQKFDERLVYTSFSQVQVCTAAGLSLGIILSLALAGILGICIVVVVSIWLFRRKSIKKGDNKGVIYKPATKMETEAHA

NS(=O)(=O)c1ccc2c(c1)CCN2C(=O)c1cccc(F)c1 [Compound 4b, 1-(3-Fluorobenzoyl)indoline-5-sulfonamide]
melting point: > 250 °C | Ki (hCA XII): > 10000 nM | Ki (hCA I): 65.9 nM | Ki (hCA IX): > 10000 nM | Ki (hCA II): 5.6 nM | inhibition of growth of A431 cells, normoxia (A431 skin cancer cells): least active | IC50 (MCF7 cells; [1]): > 50000 nM | IC50 (MCF7 cells; [2]): > 50000 nM

NS(=O)(=O)c1ccc2c(c1)CCN2C(=O)c1c(F)c(F)c(F)c(F)c1F [Compound 4e, 1-(Perfluorobenzoyl)indoline-5-sulfonamide]
melting point: 187 to 189 °C | concentration inhibiting growth of K562 cells (K562 cells): 10 µM | Ki (hCA XII): 127 nM | Ki (hCA I): 52.2 nM | Ki (hCA IX): 1300 nM | Ki (hCA II): 3.4 nM | effect of combination with Dox on viable K562/4 cells (K562/4 cells; combination with Dox (25 µM)): decline of viable K562/4 cells | cytotoxic activity against MDR subline K562/4 as monoagent (K562/4 cells; monoagent): low cytotoxic activity | IC50 (MCF7 cells; [1]): 20200 ± 2000 nM | IC50 (MCF7 cells; [2]): 29900 ± 2700 nM

COc1cc(C(=O)N2CCc3cc(S(N)(=O)=O)ccc32)cc(OC)c1OC [Compound 4m, 1-(3,4,5-Trimethoxybenzoyl)indoline-5-sulfonamide]
melting point: 248 to 250 °C | Ki (hCA XII): 103 nM | Ki (hCA I): 49 nM | Ki (hCA IX): > 10000 nM | Ki (hCA II): 3 nM | inhibition of growth of A431 cells, normoxia (A431 skin cancer cells): least active | IC50 (MCF7 cells; [1]): 36700 ± 3200 nM | IC50 (MCF7 cells; [2]): 29600 ± 2200 nM
